This note sets out measurements from PubChem BioAssay (NCI).

Molecules are shown by their SMILES.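 Results reflect a 48-hour exposure of cells in 96-well plates to compound at five concentrations. GI50 = concentration required for 50% inhibition of growth. TGI: concentration producing complete growth inhibition.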

What all share (test): growth of human tumour cells (NCI), 48 h
Assay [1] concerns K-562 leukemia.
In assay [2] the test system is UACC-257 melanoma.
The subject of assay [3] is PC-3 prostate.
For assay [4], the system named is SNB-19 CNS.
The test system of assay [5] is SK-OV-3 ovarian.
The test system of assay [6] is OVCAR-4 ovarian.
Assay [7] concerns COLO 205 colon.
Assay [8] deals with TK-10 renal.

Take `CN(C)c1ccc(/C=N/N=C(\C#N)[S][Sn]([Cl])([c]2ccccc2)[c]2ccccc2)cc1`: the GI50 in assay [1] is 0.339 µM; in assay [2], 1.52 µM; in assay [3], 2.94 µM; in assay [4] it was 1.99 µM; in assay [5], 2.78 µM; in assay [6] it was 1.32 µM. In addition, the GI50 in assay [7] was 1.64 µM; in assay [8], 1.46 µM. Moreover, the TGI in assay [1] amounted to 3.55 µM; in assay [2], 2.95 µM; in assay [3], 8.38 µM; in assay [4], 3.65 µM; in assay [6], 2.63 µM; in assay [7], 3.52 µM. Also, the TGI in assay [8] worked out at 2.8 µM.

In the case of `O=C1[C@H](Cc2ccc(O)cc2)N2C(=O)CCN(C(=O)NCc3ccccc3)[C@H]2CN1Cc1cccc2ccccc12`, the GI50 in assay [1] is 2.06 µM; in assay [2], 2.72 µM; in assay [3] it was 2.54 µM; in assay [4], 0.868 µM; in assay [5], 2.74 µM; in assay [6], 0.781 µM. Besides, the results for the GI50 in assay [7] and in assay [8] were 0.748 µM and 3.88 µM, respectively. Also, the TGI in assay [1] was greater than 100 µM; in assay [2] it was 23.9 µM; in assay [3], 18.8 µM; in assay [4], greater than 100 µM; in assay [5], 8.14 µM; in assay [6], greater than 49.9 µM. Further, the figures for the TGI in assay [7] and in assay [8] were 2.76 µM and 30.7 µM, respectively.

Consider `COc1cc2c(cc1OCCN1CCN(CCN3C(=O)c4cccc5cccc(c45)C3=O)CC1)N=C[C@@H]1CCCN1C2=O`, for which the GI50 in assay [1] is 25.2 µM; in assay [2], 21.1 µM; in assay [3], 18.1 µM; in assay [4] it was 29.9 µM; in assay [5] it was 27.8 µM; in assay [6], 24.6 µM. Further, the GI50 in assay [7] was 24.8 µM; in assay [8], 19.9 µM. In addition, the TGI in assay [1] came out at 57.7 µM; in assay [2], 48.3 µM; in assay [3], 32 µM; in assay [4] it was 53.7 µM; in assay [5] it was 46.5 µM; in assay [6], 47.3 µM. Also, the TGI was 44.8 µM in assay [7] and 37.1 µM in assay [8].

Regarding `OCc1ccc(N2CCc3ccc(F)cc3C2)cc1Cl`, the GI50 is 0.159 µM in assay [1]; 0.0279 µM in assay [2]; 12.7 µM in assay [3]; 12.4 µM in assay [4]; 2.71 µM in assay [5]; 0.0799 µM in assay [6]. The values for the GI50 in assay [7] and in assay [8] were 0.121 µM and 0.0178 µM, respectively. Further, the TGI in assay [1] worked out at 19.6 µM; in assay [2], 0.101 µM; in assay [3], 27.4 µM; in assay [4], 27 µM; in assay [5], 13.6 µM; in assay [6], 0.772 µM. Besides, the TGI in assay [7] turned out to be 0.36 µM; in assay [8], 0.0693 µM.

For the molecule `O=C1NC(=NCc2cccs2)O/C1=C\c1ccc2ncccc2c1`, the GI50 is 7.31 µM in assay [1]; 3.74 µM in assay [2]; 6.33 µM in assay [3]; 7.04 µM in assay [4]; 4.1 µM in assay [5]; 4.5 µM in assay [6]. Also, the values for the GI50 in assay [7] and in assay [8] were 5.2 µM and 2.89 µM, respectively. For the same molecule, the TGI in assay [1] was greater than 25 µM; in assay [2], 12.4 µM; in assay [3], greater than 25 µM; in assay [4] it was greater than 25 µM; in assay [5], 12.2 µM; in assay [6], greater than 20.3 µM. For the same molecule, the TGI stood at 12.8 µM in assay [7] and 9.61 µM in assay [8].

In the case of `COc1ccccc1CNCCCN1C(=O)c2ccc3c4c(ccc(c24)C1=O)C(=O)N(CCCNCc1ccccc1OC)C3=O`, the GI50 was 0.265 µM in assay [1]; 0.184 µM in assay [2]; 0.214 µM in assay [3]; 0.159 µM in assay [4]; 0.352 µM in assay [5]; 0.101 µM in assay [6]. Also, the GI50 was 0.121 µM in assay [7] and 0.17 µM in assay [8]. The TGI in assay [1] amounted to 0.83 µM; in assay [2], 0.349 µM; in assay [3], 0.608 µM; in assay [4], 0.347 µM; in assay [5], 1 µM; in assay [6], 0.231 µM. Also, the TGI in assay [7] was determined as 0.256 µM; in assay [8], 0.466 µM.

For `CN(C)CCCC1(c2ccc(F)cc2)OCc2cc(-c3csc4ccccc34)ccc21` (centres undefined), the GI50 is 1.72 µM in assay [1]; 1.78 µM in assay [2]; 1.73 µM in assay [3]; 1.6 µM in assay [4]; 1.61 µM in assay [5]; 1.68 µM in assay [6]. For the same molecule, the GI50 in assay [7] was 1.73 µM; in assay [8] it was 1.6 µM. For the same molecule, the TGI was determined as 3.45 µM in assay [1]; 3.49 µM in assay [2]; 3.29 µM in assay [3]; 3.04 µM in assay [4]; 3.12 µM in assay [5]; 3.28 µM in assay [6]. Besides, the results for the TGI in assay [7] and in assay [8] were 3.79 µM and 3.16 µM, respectively.

For the molecule `O=C(CCN1CCOCC1)Nc1ccc(Cn2nnc3c2C(=O)c2nnn(Cc4ccc(NC(=O)CCN5CCOCC5)cc4)c2C3=O)cc1`, the GI50 in assay [1] was 1.81 µM; in assay [2], 1.64 µM; in assay [4] it was 1.56 µM; in assay [5] it was greater than 84 µM; in assay [6] it was 1.36 µM; in assay [7], 0.645 µM. In addition, the GI50 in assay [8] was greater than 100 µM. Moreover, the TGI in assay [1] is greater than 100 µM; in assay [2], 3.57 µM; in assay [3], greater than 100 µM; in assay [4], 3.07 µM; in assay [5], greater than 100 µM; in assay [6] it was 3.44 µM. The TGI in assay [7] was 2.13 µM; in assay [8] it was greater than 100 µM.

In the case of `O=[N+]([O-])c1ccc(/C=C(/c2ccc([N+](=O)[O-])o2)S(=O)(=O)c2ccccc2)cc1`, the TGI in assay [1], in assay [2], in assay [3], in assay [4], in assay [5] and in assay [6] was greater than 100 µM in each case. The TGI in assay [7] and in assay [8] was greater than 100 µM each time.
